This is an account of results in patent publication US20190070268A1, “ABUSE-DETERRENT PHARMACEUTICAL COMPOSITIONS” (priority 2016, published 2019).

Data set [1] deals with T1, Thermobifida cellulosilytica cutinase 1 (THC) (Thermobifida cellulosilytica, UniProt E9LVH8).
T1 construct: made in house
T1 sequence (E9LVH8 1-262): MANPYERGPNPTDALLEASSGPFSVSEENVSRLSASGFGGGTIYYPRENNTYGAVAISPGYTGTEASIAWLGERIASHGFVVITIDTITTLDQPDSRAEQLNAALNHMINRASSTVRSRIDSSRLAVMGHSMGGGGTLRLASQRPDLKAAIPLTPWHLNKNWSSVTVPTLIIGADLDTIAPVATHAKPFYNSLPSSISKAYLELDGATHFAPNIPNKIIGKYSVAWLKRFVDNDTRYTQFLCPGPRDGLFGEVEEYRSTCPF
The data set is classed as biochemical.

Data set [2] has as its system Humicola insolens cutinase (HiC). It counts as biochemical.
Data set [3] concerns laccase mediator system. Kind of data set: Laccase mediator system and methadone, oxygen measurement. The data set is classed as biochemical. Particulars: mediator ABTS (best effect). As for the experimental part: (§1) During the reaction oxygen acts as electron acceptor and is reduced to water by laccases while the mediators are oxidized. The concentration of oxygen was measured as described above. Oxygen is consumed until the mediator is fully oxidized. […] The second step of the reaction is initiated by addition of the target substrate, which is consequently oxidized by the mediators.
(§2) In the present experiments the final reaction mixtures contained 0.2 to 6 mM mediator, 1-10 units of laccase per ml and 100-3000 mg L^−1 opioid.
For methadone, oxygen measurements were done, but with an extended palette of mediators: In addition to the aforementioned mediators, syringic acid, TEMPO, syringol and ABTS were tested.

Data set [4] has as its system laccase from Myceliophthora thermophila (MtL). Kind of data set: Polymerization of morphine with laccase from Myceliophthora thermophila (high concentrations). It counts as biochemical. Particulars: MTL 10 U to 100 U, 50 mM sodium phosphate buffer pH 7.
Protocol: The reactions were carried out in 50 mM sodium phosphate buffer pH 7.
The test system of a further data set is laccase. Kind of data set: Thin layer chromatography of enzymatic conversion. The data set is classed as biochemical. The note with it: samples at 2, 10, 30, 60, 120 minutes.
Data set [5] deals with laccase mediator system. Kind of data set: Laccase mediator system and oxycodone, oxygen concentration measurement. It counts as biochemical. Particulars: 10 units laccase/ml, 1000 mg/L oxycodone. Here is the method:
as §1, §2
The different mediators were used at concentrations of 2 mM with 10 units laccase ml^−1 and 1000 mgL^−1 oxycodone.

For data set [6], the system named is laccase from Trametes villosa (TvL). Kind of data set: Oxygen measurement of laccase catalysed oxidation of opioids (TvL). Particulars: 10 U/ml TvL, 2 mg/ml substrate, distilled water; for oxygen concentration in solution upon laccase oxidation: room temperature. It counts as biochemical. The text has this: (§3) Laccases use oxygen as electron acceptor, consequently the oxygen concentration decreases upon substrate oxidation.

For data set [7], the system named is laccase mediator system. Kind of data set: Laccase mediator system and oxycodone, HPLC-MS/TOF. The data set is classed as biochemical. As for the experimental part: The concentrations were determined with a liquid chromatography-electrospray ionization-time of flight (HPLC-ESI-TOF) mass spectrometer from Agilent (A1260 series, Agilent US). The substances contained in the samples were separated by a Zorbax Hilic Plus, 2.1×100 mm, 3.5 μm (Agilent, US) column. The gradient was set to 100% mobile phase A (65 mM ammonium formiate pH 3.2) with a flow rate of 0.4 mL min^−1 at 40° C. and changed to 100% mobile phase B (acetonitrile) in 15 minutes with an injection volume of 1 μL. The spectra were acquired over the m/z range from 100 to 3000 at a scan rate of two spectra per second. The standard curve for each opioid was performed with corresponding standards ranging from 0.001 to 50 mg L^−1.
In addition to the reactions shown in FIG. 17, the mediator vanillin was used at a higher concentration (6 mM). The results can be seen in FIG. 18 and FIG. 19. […] One of oxycodone's main degradation products, oxymorphone, was found in all samples. Oxymorphone is an impurity of oxycodone and is therefore present even in the controls where no laccase or mediator were used.

Data set [8] concerns laccase from Myceliophthora thermophila (MtL). Kind of data set: Oxygen measurement of laccase catalysed oxidation of opioids (MtL). The note with it: 10 U/ml MtL, 2 mg/ml substrate, distilled water, room temperature. It counts as biochemical.
Source text: as §3

The target of another data set is T2, pepsin (Sus scrofa, UniProt P00791).
T2 construct: purchased Sigma-Aldrich (US) P7000
Kind of data set: Pepsin digestion assay in simulated gastric fluid with SDS-PAGE. The data set is classed as in vitro ADME. Particulars: SGF pH 1.2 with pepsin, 37° C. As for the experimental part:
SGF contains 0.084 M HCl, 0.035 M NaCl, 4000 U of pepsin per reaction mixture and has a pH level of 1.2 according to the United States Pharmacopeia (1995). A ratio of 10000 Units of pepsin activity to 1 mg of test protein was used throughout the assay, which is based on an evaluation of the average activity of pepsin recommended in the United States Pharmacopeia (24th edition, 2000) with some modifications. Pepsin (ref. #P7000) was purchased from Sigma-Aldrich (US). All proteins that were used were dissolved in 50 mM Tris-HCl (pH 9.5) at a concentration of 5 mg mL^−1. The reaction mixture contained 1.52 mL of SGF preheated to 37° C. before the addition of 0.08 mL of protein solution (Thomas et al., 2004). The mixture was placed into a thermomixer at 37° C. and was shaken at 400 rpm. For denaturating SDS-polyacrylamide gel electrophoresis (SDS-PAGE) analysis samples of 160 μl were removed at 0 minutes, 0.5 minutes, and 15 minutes after initiation.
SDS-PAGE was performed to analyze and visually inspect stained protein bands whether the protein band is still intact or fragmented after the digestion assay. […]
Each 160 μl of the digestion samples was quenched by adding 56 μl of 200 mM NaHCO3 as neutralization step and 56 μl 4× Laemmli (Laemmli 1970) buffer for electrophoresis. Samples were immediately heated up to 99° C. for 10 minutes and analyzed directly or stored at −20° C. […]

T2 sequence (P00791 60-385): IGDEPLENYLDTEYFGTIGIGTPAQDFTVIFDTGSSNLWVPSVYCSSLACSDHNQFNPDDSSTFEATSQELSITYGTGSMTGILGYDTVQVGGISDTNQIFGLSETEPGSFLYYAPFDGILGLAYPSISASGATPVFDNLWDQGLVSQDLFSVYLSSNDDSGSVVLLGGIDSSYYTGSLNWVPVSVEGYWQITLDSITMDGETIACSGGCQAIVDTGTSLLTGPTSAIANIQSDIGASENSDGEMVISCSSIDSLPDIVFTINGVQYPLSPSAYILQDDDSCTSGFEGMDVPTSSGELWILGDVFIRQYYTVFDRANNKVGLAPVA

On to `CC(=O)Oc1ccc2c3c1O[C@H]1[C@@H](OC(C)=O)C=C[C@H]4[C@@H](C2)N(C)CC[C@@]341` [diacetylmorphine], for which the DAM concentration result in [1] and in [2] was “declines” throughout. The “morphine concentration formed from DAM” value in [1] and in [2] was “increased” throughout. Further, the “diacetylmorphine hydrolyzed (total acetate yield, HPLC/RI)” value in data set [1] (pH 7) and in data set [2] (pH 7) was “more than 50%” throughout.

Turning to `CCC(=O)C(CC(C)N(C)C)(c1ccccc1)c1ccccc1` (stereo not drawn) [methadone], in the data set with laccase mediator system [3], the “oxygen concentration after addition of the opioid” value is “decline in oxygen concentration”.

Regarding `CN1CC[C@]23c4c5ccc(O)c4O[C@H]2[C@@H](O)C=C[C@H]3[C@H]1C5` [morphine], the “faster degradation of morphine with 10 times more laccase” value in data set [4] is around 10 times. Further, the “time at which new dot(s) appear on TLC (new product)” value with laccase amounted to 120 s.

Take `COc1ccc2c3c1O[C@H]1C(=O)CC[C@@]4(O)[C@@H](C2)N(C)CC[C@]314` [oxycodone]: the “oxygen concentration after addition of the opioid” value in the data set with laccase mediator system [5] (mediator ethylvanillin 2 mM) is recorded as “drop in oxygen concentration”; in the data set with laccase mediator system [5] (mediator gallic acid 2 mM), “no apparent effect”; in the data set on laccase mediator system [5] (mediator syringic acid 2 mM) it was “drop in oxygen concentration”; in the data set on laccase mediator system [5] (mediator vanillin 2 mM), “drop in oxygen concentration”. Also, the “oxygen concentration in solution upon laccase oxidation” value in data set [6] and in data set [8] was “not capable of converting oxycodone” throughout. Moreover, the “oxycodone concentration (HPLC-MS/TOF)” value in the data set on laccase mediator system [7] (laccase mediator system, mediators at 2 mM, vanillin also 6 mM) is reported as “decrease in oxycodone concentration was confirmed”. Also, the “effect on oxycodone (MS-TOF analysis)” value in the data set with laccase mediator system [7] (mediator gallic acid) is listed as “no apparent effect”. Further, the “peak area of oxymorphone (degradation product) by MS-TOF” value in the data set with laccase mediator system [7] (oxycodone in combination with the laccase mediator system) was “increase in peak area of oxymorphone over time”.

For `CC[C@@H](c1cccc(O)c1)[C@@H](C)CN(C)C` [tapentadol], in data set [6], the “oxygen level to which the curve drops” value was around 0% and the “oxygen concentration in solution upon laccase oxidation” value is given as “converts tapentadol better”. For the same molecule, in the data set with laccase, the “time at which new dot(s) appear on TLC (new product)” value was 120 s and the “time at which the reference dot disappears on TLC (all converted)” value was found to be 120 min. In addition, in [8], the “oxygen concentration in solution upon laccase oxidation” value is on record as “much slower”.

With HRP: horse radish peroxidase, the “proteolytic degradation (SDS-PAGE)” value with pepsin is on record as “very susceptible to proteolytic degradation”.
